Four compounds from patent US20260144252A1, “BROMINE- OR IODINE-PARA-SUBSTITUTED [(1,5-DIPHENYL-1H-1,2,4-TRIAZOL-3-YL)OXY]ACETIC ACID DERIVATIVES AND THEIR SALTS, AGENTS FOR PROTECTING USEFUL PLANTS OR CROP PLANTS COMPRISING THEM, METHODS FOR PRODUCING THEM AND THEIR USE AS SAFENERS” (Bayer Aktiengesellschaft, priority 2022, published 2026) can be followed below.

Each structure is given as a SMILES string.

Holding throughout (assay type): in vivo
The test system of test [1] is summer barley (HORVS, cv. Quench). Kind of test: Reduction of damage by mesosulfuron-methyl on summer barley (greenhouse, post-emergence safener test). Further details: key: 0: no reduction in damage (appearance corresponding to the herbicide control); 1: slight reduction in damage; 2: distinct reduction in damage; 3: significant reduction in damage; 4: complete reduction in damage (appearance corresponding to the untreated control). The settings on record: safener 100 g/ha, mesosulfuron-methyl 40 g/ha, visual, 12-13 days after application. As for the experimental part: (§1) The seeds of the crop plants to be treated were laid out in soil in plastic pots (diameter ˜4 cm), covered with soil and grown in a greenhouse under good conditions for germination and growth. The trial plants were treated at the early leaf stage (BBCH10-BBCH12). In the course of this, the inventive compounds of the general formula (I) formulated in the form of wettable powders (WP) were sprayed onto the above-ground parts of the plants as an aqueous suspension with a water application rate corresponding to 800 l/ha with addition of wetting agent (Mero, 0.2%) in the specified dose. This was followed by the application of the herbicide. For this purpose, mesosulfuron-methyl, formulated in the form of water-dispersible granules (WG), was sprayed onto the above-ground parts of the plants in the form of an aqueous dispersion with a water application rate corresponding to 800 l/ha with addition of wetting agent (Biopower, 1 l/ha) in a dose of 40 g/ha. The dose of the herbicide was chosen here such that it causes average, visually clearly apparent damage (50-60%) compared to untreated crop plants at the evaluation time on a control group of crop plants without safener treatment that were included in the same trial. After application, the plants were cultivated under good growth conditions in a greenhouse. 12-13 days after application, the efficacy of the test compounds was assessed visually. For this purpose, the appearance of the plants treated with the test compound and herbicide was compared to the corresponding herbicide controls (without safener; with clearly visible damage) and the untreated controls (without damage). The damage-reducing effect of the test compounds was expressed here separately for 2 repeats in graded efficacy codes according to the following scheme: • 0: no reduction in damage (appearance corresponding to the herbicide control) • 1: slight reduction in damage • 2: distinct reduction in damage • 3: significant reduction in damage • 4: complete reduction in damage (appearance corresponding to the untreated control)

Test [2] has as its system summer barley (HORVS; cv. Quench). Kind of test: Comparative herbicide/safener combination test, damage by mesosulfuron-methyl + iodosulfuron-methyl-sodium. As to conditions: safener 20 g a.i./ha, damage without safener 50%. As to the method:
(§2) The seeds of the crop plants to be treated were laid out in soil in wood fiber pots (diameter ˜7 cm), covered with soil and grown in a greenhouse under good conditions for germination and growth. The trial plants were treated at the early leaf stage (BBCH11-12). For this purpose, the herbicides and safeners used were formulated as wettable powders (WP), mixed in accordance with the dose specified in each case, and sprayed onto the above-ground parts of the plants as an aqueous suspension at a water application rate corresponding to 300 l/ha with addition of wetting agent (Biopower, 0.2%). The herbicidal effects were created using a mixture of mesosulfuron-methyl (40 g a.i./ha) and iodosulfuron-methyl-sodium (8 g a.i./ha). The total herbicide dose was chosen here such that it causes average, visually clearly apparent damage (min. 20%, max. 60%) compared to untreated crop plants at the evaluation time on a control group of crop plants without safener treatment that were included in the same trial. After application, the plants were cultivated under good growth conditions in a greenhouse. 20 days after application, the herbicide damage was assessed visually. The damage was assessed visually on a scale of 0-100% by comparison with untreated control plants, and averaged over 2 repeats per treatment.

For test [3], the system named is winter barley (HORVW; cv. Zzoom). The test is described as above. The settings on record: safener 20 g a.i./ha, damage without safener 55%. As to the method: as §2
The test system of test [4] is durum wheat (TRZDU; cv. Joyau). The description is as above. The settings on record: safener 20 g a.i./ha, damage without safener 20%. As to the method: as §2
In test [5] the test system is summer wheat (TRZAS, cv. Triso). Nature of the test: Reduction of damage by mesosulfuron-methyl on summer wheat (greenhouse, post-emergence safener test). On the set-up: key: 0: no reduction in damage (appearance corresponding to the herbicide control); 1: slight reduction in damage; 2: distinct reduction in damage; 3: significant reduction in damage; 4: complete reduction in damage (appearance corresponding to the untreated control). As to conditions: mesosulfuron-methyl 40 g/ha, visual, 12-13 days after application. As to the method:
as §1

Where [6] appears, read: mesosulfuron-methyl 40 + iodosulfuron-methyl-sodium 8 g a.i./ha, 20 days after application.

As to `COC(=O)CCOC(=O)COc1nc(-c2ccc(F)cc2F)n(-c2ccc(Br)cc2F)n1` [I.61-1], the “Efficacy of the safener [Efficacy Code]” value in test [1] was 2.
In the case of `O=C(COc1nc(-c2ccc(F)cc2F)n(-c2ccc(Br)cc2F)n1)OCC1CCOC1` (centres unmarked) [I.63-1], the “Efficacy of the safener [Efficacy Code]” value in test [1] stood at 2.
Turning to `COCCOC(=O)COc1nc(-c2ccc(F)cc2F)n(-c2ccc(Br)cc2F)n1` [I.67-1], the “Reduction in damage by safener (difference)” value in test [2] worked out at 50; in test [3], 45; in test [4], 20. The “Reduction in damage by safener (in %)” value in test [2] worked out at 100%; in test [3], 82%; in test [4], 100%. Moreover, the “Damage to crop plant by herbicide treatment WITH SAFENER” value in test [2] (setting [6]) was found to be 0%; in test [3] (setting [6]), 10%; in test [4] (setting [6]), 0%. Besides, the results for the “Efficacy of the safener [Efficacy Code]” value in test [1], in test [5] (safener 100 g/ha) and in test [5] (safener 500 g/ha) were 3, 2 and 3, respectively.
`CCOC(=O)COc1nc(-c2ccc(F)cc2F)n(-c2ccc(Br)cc2F)n1` [I.41-1]: the “Efficacy of the safener [Efficacy Code]” value in test [1] is 3; in test [5] (safener 100 g/ha) it was 2; in test [5] (safener 500 g/ha) it was 2.
